From ChEMBL document CHEMBL3045684, “Compatibility of traditional and novel acaricides with bumblebees (Bombus terrestris): a first laboratory assessment of toxicity and sublethal effects” (Pest Manag Sci, 2010) come the findings set out here.

Broadly, the mortality is the percentage killed.

Active and inactive are the calls of the source. The calls are words filed in the database; no cut-off is given here.

Assay [1] deals with Bombus terrestris. The assay can be described thus: Toxicity against worker Bombus terrestris (bumblebee) assessed as reduction in reproduction at 3 mg a.i./l, po administered through sugar water for 11 weeks measured once a week for 11 weeks relative to control. The assay is classed as functional, organism-based.
Assay [2] has as its system Bombus terrestris. The assay can be described thus: Toxicity against worker Bombus terrestris (bumblebee) assessed as mortality at 3 mg a.i./l, po administered through pollen for 11 weeks measured everyday for 3 days followed by once a week for 11 weeks. The format is functional.
For assay [3], the system named is Bombus terrestris. The experiment in a line: Toxicity against worker Bombus terrestris (bumblebee) assessed as reduction in reproduction at 3 mg a.i./l, po administered through pollen for 11 weeks measured once a week for 11 weeks. The format is functional. On the set-up: scale not given: the % may be the effect or the level left.
In assay [4] the test system is Bombus terrestris. The experiment in a line: Toxicity against worker Bombus terrestris (bumblebee) assessed as mortality at 3 mg a.i./l, po administered through sugar water for 11 weeks measured everyday for 3 days followed by once a week for 11 weeks. The assay is classed as functional.
For assay [5], the system named is Bombus terrestris. The assay can be described thus: Contact toxicity against worker Bombus terrestris (bumblebee) assessed as reduction in reproduction at 3 mg a.i./l applied on the dorsal thorax for 11 weeks measured once a week for 11 weeks relative to control. The assay is classed as functional, organism-based.
In assay [6] the test system is Bombus terrestris. The experiment in a line: Contact toxicity against worker Bombus terrestris (bumblebee) assessed as mortality at 3 mg a.i./l applied on the dorsal thorax for 11 weeks measured everyday for 3 days followed by once a week for 11 weeks. The format is functional.
The test system of assay [7] is Bombus terrestris. The assay can be described thus: Contact toxicity against worker Bombus terrestris (bumblebee) assessed as mortality at 400 mg a.i./l applied on the dorsal thorax for 11 weeks measured everyday for 3 days followed by once a week for 11 weeks. The assay is classed as functional.
For assay [8], the system named is Bombus terrestris. The experiment in a line: Toxicity against worker Bombus terrestris (bumblebee) assessed as mortality at 400 mg a.i./l, po administered through pollen for 11 weeks measured everyday for 3 days followed by once a week for 11 weeks. The assay is classed as functional.
In assay [9] the test system is Bombus terrestris. The experiment in a line: Contact toxicity against worker Bombus terrestris (bumblebee) assessed as reduction in reproduction at 400 mg a.i./l applied on the dorsal thorax for 11 weeks measured once a week for 11 weeks relative to control. The assay is classed as functional, organism-based.
In assay [10] the test system is Bombus terrestris. The experiment in a line: Toxicity against worker Bombus terrestris (bumblebee) assessed as reduction in reproduction at 400 mg a.i./l, po administered through pollen for 11 weeks measured once a week for 11 weeks. The format is functional. Further details: scale not given: the % may be the effect or the level left.
In assay [11] the test system is Bombus terrestris. The experiment in a line: Toxicity against worker Bombus terrestris (bumblebee) assessed as mortality at 400 mg a.i./l, po administered through sugar water measured up to 1 week. The format is functional, organism-based.
For assay [12], the system named is Bombus terrestris. The experiment in a line: Toxicity against worker Bombus terrestris (bumblebee) assessed as mortality at 400 mg a.i./l, po administered through sugar water for 11 weeks measured everyday for 3 days followed by once a week for 11 weeks. The assay is classed as functional.
For assay [13], the system named is Bombus terrestris. The experiment in a line: Toxicity against worker Bombus terrestris (bumblebee) assessed as reduction in reproduction at 400 mg a.i./l, po administered through sugar water for 11 weeks measured once a week for 11 weeks relative to control. The format is functional, organism-based.
For assay [14], the system named is Bombus terrestris. The experiment in a line: Contact toxicity against worker Bombus terrestris (bumblebee) assessed as mortality at 240 mg a.i./l applied on the dorsal thorax for 11 weeks measured everyday for 3 days followed by once a week for 11 weeks. The format is functional.
Assay [15] relates to Bombus terrestris. The assay can be described thus: Contact toxicity against worker Bombus terrestris (bumblebee) assessed as reduction in reproduction at 240 mg a.i./l applied on the dorsal thorax for 11 weeks measured once a week for 11 weeks relative to control. The assay is classed as functional, organism-based.
Assay [16] has as its system Bombus terrestris. The assay can be described thus: Toxicity against worker Bombus terrestris (bumblebee) assessed as reduction in reproduction at 240 mg a.i./l, po administered through sugar water for 11 weeks measured once a week for 11 weeks relative to control. The format is functional, organism-based.
Assay [17] concerns Bombus terrestris. The experiment in a line: Toxicity against worker Bombus terrestris (bumblebee) assessed as mortality at 240 mg a.i./l, po administered through pollen measured after 5 weeks. The following applies: 840 h. The assay is classed as functional.
Assay [18] deals with Bombus terrestris. The assay can be described thus: Toxicity against worker Bombus terrestris (bumblebee) assessed as mortality at 240 mg a.i./l, po administered through sugar water measured up to 1 week. The assay is classed as functional, organism-based.
Assay [19] deals with Apis mellifera. The assay can be described thus: Toxicity against Apis mellifera (honey bee) assessed per bee. The assay is classed as functional.
For assay [20], the system named is Bombus terrestris. The assay can be described thus: Toxicity against worker Bombus terrestris (bumblebee) assessed as mortality at 240 mg a.i./l, po administered through pollen measured after 8 weeks. As to conditions: 1344 h. The assay is classed as functional.
Assay [21] concerns Bombus terrestris. The assay can be described thus: Toxicity against worker Bombus terrestris (bumblebee) assessed as reduction in reproduction at 240 mg a.i./l, po administered through pollen for 11 weeks measured once a week for 11 weeks. The format is functional, organism-based.
The test system of assay [22] is Bombus terrestris. The experiment in a line: Toxicity against worker Bombus terrestris (bumblebee) assessed as mortality at 240 mg a.i./l, po administered through pollen for 11 weeks measured everyday for 3 days followed by once a week for 11 weeks. The assay is classed as functional.
Assay [23] relates to Bombus terrestris. The experiment in a line: Contact toxicity against Bombus terrestris (bumblebee) assessed per bee. The assay is classed as functional.
For assay [24], the system named is Bombus terrestris. The assay can be described thus: Toxicity against worker Bombus terrestris (bumblebee) assessed as mortality at 240 mg a.i./l, po administered through sugar water for 11 weeks measured everyday for 3 days followed by once a week for 11 weeks. The format is functional.
The test system of assay [25] is Apis mellifera. The experiment in a line: Contact toxicity against Apis mellifera (honey bee) assessed per bee. The format is functional.

On to `C[C@@H]1[C@@H](c2ccc(Cl)cc2)SC(=O)N1C(=O)NC1CCCCC1` (relative stereo) [HEXYTHIAZOX], for which the result in the assay with Bombus terrestris [1] was Active. Moreover, the mortality at 3 µg/mL in the assay on Bombus terrestris [2] was 90%; in the assay with Bombus terrestris [4] it was < 25%; with Bombus terrestris [6], < 25%. Also, the Activity in the assay with Bombus terrestris [3] was determined as 50%. Besides, the result in the assay on Bombus terrestris [5] was inactive.

`Cc1ccc(/N=C/N(C)/C=N/c2ccc(C)cc2C)c(C)c1` [AMITRAZ]: the mortality at 400 µg/mL was < 25% in the assay on Bombus terrestris [7], 90% in the assay with Bombus terrestris [8] and 95% in the assay on Bombus terrestris [12]. Besides, in the assay with Bombus terrestris [9], the outcome was inactive. Moreover, the Activity in the assay with Bombus terrestris [10] is reported as 50%. The result in the assay with Bombus terrestris [11] and with Bombus terrestris [13] was Active.

Turning to `CCOCn1c(-c2ccc(Cl)cc2)c(C#N)c(Br)c1C(F)(F)F` [CHLORFENAPYR], the mortality at 240 µg/mL in the assay on Bombus terrestris [14] is < 25%; with Bombus terrestris [17] it was 50%; with Bombus terrestris [20], 90%; in the assay on Bombus terrestris [22] it was 90%; in the assay with Bombus terrestris [24] it was 95%. For the same molecule, the outcome in the assay with Bombus terrestris [15] was inactive. The outcome with Bombus terrestris [16], in the assay with Bombus terrestris [18] and in the assay on Bombus terrestris [21] was Active. In addition, the LD50 in the assay on Apis mellifera [19] is 0.2 µg; with Bombus terrestris [23], >100 µg; in the assay with Apis mellifera [25], <1 µg.
